Measurements from the NIST ThermoML archive (doi:10.1016/j.jct.2012.05.001).
Numbers after ± are expanded uncertainties.

Conditions: 101.33 kPa, Liquid; for viscosity: Falling or rolling sphere viscometry; for mass density: Vibrating tube method

viscosity (293.15 K) [mPa·s] | mass density (293.15 K) [kg/m3] | viscosity (298.15 K) [mPa·s] | mass density (298.15 K) [kg/m3] | viscosity (303.15 K) [mPa·s] | mass density (303.15 K) [kg/m3] | viscosity (323.15 K) [mPa·s] | mass density (323.15 K) [kg/m3] | viscosity (343.15 K) [mPa·s] | mass density (343.15 K) [kg/m3] | SMILES
807.6 ± 98 | 1205 ± 25 | 533.41 ± 56 | 1201.7 ± 25 | 369.63 ± 32 | 1198.3 ± 25 | 106.16 ± 3.9 | 1185 ± 25 | 41.09 ± 0.8 | 1171.7 ± 25 | O=C[O-].OCC[NH2+]CCO [diethanolammonium formate]
67.61 ± 1.1 | 1178.5 ± 25 | 52.01 ± 0.61 | 1175.1 ± 25 | 40.51 ± 0.52 | 1171.7 ± 25 | 18.19 ± 0.26 | 1158.1 ± 25 | 9.698 ± 0.14 | 1144.3 ± 25 | NCCO.O=CO [2-hydroxyethylammonium formate]
